A value given as a limit tells only on which side of the number the result lay.

This passage reports EC50 results from ChEMBL document CHEMBL5154759, “Discovery of Aryl Benzoyl Hydrazide Derivatives as Novel Potent Broad-Spectrum Inhibitors of Influenza A Virus RNA-Dependent RNA Polymerase (RdRp)” (J Med Chem, 2022).

Experiment [1] has as its system Influenza A virus. As to the kind of experiment: microbe, parasite or virus in culture. The note with it: H5N1, MDCK, 48 h.
Experiment [2] concerns Influenza A virus. In kind it is functional, organism-based. The note with it: A/Puerto Rico/8/34 (H1N1), MDCK, 48 h.
In experiment [3] the test system is Influenza A virus. In kind it is functional, organism-based. The note with it: A/Anhui/1/2013 (H7N9), MDCK, 48 h.
Experiment [4] relates to Influenza A virus. Type of experiment: functional, organism-based. The note with it: A/Vietnam/1194/2004 (H5N1), MDCK, 48 h.
Experiment [5] relates to Influenza A virus. Type of experiment: functional, organism-based. The note with it: A/Aichi/2/68 (H3N2), MDCK, 48 h.

The term EC50 denotes the concentration at which the effect is half-maximal. Read a high EC50 as lower potency in that assay. In turn, `O=C(NNc1c(Br)cccc1Br)c1ccc2c(c1)OCO2` had an EC50 in experiment [1] of 13000 nM.
The molecule `CCN(CC)c1ccc(C(=O)NNc2c(Br)cccc2Br)cc1` yielded an EC50 in experiment [1] of 9.3 nM.
On the same count and under the same terms, the result for `CCOc1ccc(C(=O)N(C)Nc2c(Cl)cccc2Cl)cc1` reads more than 100000 nM.
Regarding `O=C(NNc1c(Br)cccc1Br)c1ccccc1`, a half-maximal response in experiment [1] (EC50) required 81000 nM.
In the case of `COc1ccccc1C(=O)NNc1c(Br)cccc1Br`, the EC50 in experiment [1] was more than 100000 nM.
On the same count and under the same terms, the result for `CCCOc1ccc(C(=O)NNc2c(Br)cccc2Br)cc1` reads 23 nM; that for `CCOc1ccc(C(=O)Nc2c(Br)cccc2Br)cc1`, more than 100000 nM.
Consider `O=C(NNc1c(Br)cccc1Br)c1ccc(-c2ccccc2)cc1`, for which the half-maximal effective concentration (EC50) in experiment [1] is 83 nM.
As to `CCc1ccc(C(=O)NNc2c(Br)cc(Br)cc2Br)cc1`, the EC50 in experiment [1] came out at 4400 nM.
`COc1ccc(C(=O)NNc2c(Br)cccc2Br)cc1` returned an EC50 in experiment [1] of 2300 nM.
Turning to `Nc1ccc(C(=O)NNc2c(Br)cccc2Br)cc1`, the EC50 in experiment [1] is 7800 nM.
On to `CCOc1ccc(C(=O)NNc2ccccc2Br)cc1`, for which the EC50 in experiment [1] is more than 100000 nM.
In experiment [1], `Cc1cccc(C)c1NNC(=O)c1ccc(C(C)(C)C)cc1` displayed an EC50 of 220 nM.
On the same count and under the same terms, the result for `CC(C)(C)c1ccc(C(=O)NNc2c(Br)cccc2Br)cc1` reads 37 nM; that for `CCOc1ccc(C(=O)NNc2c(Cl)cccc2Cl)cc1`, 77 nM.
For `O=c1oc2cc(O)cc(O)c2c2ccccc12`, the EC50 in experiment [2], in experiment [3], in experiment [4] and in experiment [5] was 1700 nM each time.
`CCCCOc1ccc(C(=O)NNc2c(Br)cccc2Br)cc1`: the EC50 in experiment [1] came out at 230 nM.
On to `O=C(NNc1c(Br)cccc1Br)c1cccnc1`, for which, in experiment [1], the EC50 is more than 100000 nM.
The same measure, in the same setting: the figure for `CCOc1ccc(C(=O)NNc2c(Br)cc(Br)cc2Br)cc1` is 4200 nM; for `COc1cccc(C(=O)NNc2c(Br)cccc2Br)c1` it is more than 100000 nM.
`O=C(NNc1c(Br)cccc1Br)c1ccc(O)cc1` came in with an EC50 in experiment [1] of more than 100000 nM.
`Cc1ccc(C(=O)NNc2c(Cl)cccc2Cl)cc1` came in with an EC50 in experiment [1] of 4100 nM.
As to `CCc1ccc(C(=O)NNc2c(Br)cccc2Br)cc1`, a half-maximal response in experiment [1] (EC50) required 78 nM.
Same read-out and setting: the figure for `O=C(O)c1ccc(C(=O)NNc2c(Br)cccc2Br)cc1` is more than 100000 nM.
Still for that read-out and setting: the result for `CCOc1ccc(C(=O)NNc2ccc(Br)cc2Br)cc1` reads more than 100000 nM.
